Laboratory results published in patent US20250235462A1, “NOVEL CAPSID ASSEMBLY INHIBITORS” (AM SCIENCES INC, priority 2021, published 2025).
“And” between values parts separate entries of the source, which are not always exact repeats. Equal values may be shown once. Read-outs that look alike come from different tables or passages of the source.

Assays:
[1] = target: Protein (capsid assembly) (Hepatitis B virus genotype D subtype ayw, UniProt P03146); assay: Protein inhibition (capsid assembly inhibition), Table 1; format: biochemical
[2] = Cell viability assay (EZ-Cytox) in HepAD38 cells; format: cell-based; settings: human, 65 hours of treatment; for CC50 at 65 h: read-out: Cytotoxicity CC50; for viability at 65 h, 100 µM: read-out: Cytotoxicity % Livability (@100 μM)
Description: HepAD38 cells were cultured for 2 days in Dulbecco's Modified Eagle's medium (Welgene, LM001-05) supplemented with 10% FBS without tetracycline. The cells were seeded in 48-well culture plates (1×10^5 cells/well) and treated with each compound at five concentrations (0 μM (0.8% DMSO as a control), 33 μM, 50 μM, 66 μM, and 100 μM). After 65 hours of treatment, viability was measured using EZ-Cytox cell viability assay kit (Daeil Lab Service) according to the manufacturer's instructions. The absorbance was measured at 450 nm using a spectrophotometer (Spark, Tecan). Here, NVR-3-778 (denoted as NVR) was used as a positive control.

intracellular HBV DNA = assay: Real-time PCR for intracellular HBV DNA in HepAD38 cells; format: cell-based, hepatitis B virus (HBV); settings: treated for 65 hours, intracellular HBV DNA by real-time PCR
Description: HepAD38 cells were cultured in DMEM medium (Welgene) supplemented with 200 unit/mL penicillin, 200 μg/mL streptomycin, and 10% FBS. During maintenance and passage, the cells were cultured together with 0.4 μg/mL tetracycline. Two days before the treatment with compounds for inducing HBV replication was started, the medium was replaced with a tetracycline-free complete growth medium. […]
HepAD38 cells were treated with a compound for 65 hours and then recovered, and intracellular HBV DNA was extracted therefrom according to the protocol in the DNeasy Blood & Tissue Kit (Qiagen). The primers and probes used to quantify HBV DNA were 5′-[…]-3′, 5′-[…]-3′, and 5′-/56-FAM/TGT CCT GGT/ZEN/[…]/3IABKFQ/-3′. The HBV DNA was amplified by real-time PCR assay using LightCycler 480 (Roche) (J. Virol., 2018, 92(16):e00339-18). All of the processes were confirmed in duplicate.

[3] = @30 μM, read-out: Protein % inhibition rate (@30 μM)
[4] = Hepatitis B virus, HePAD38, 65 h
[5] = NVR value of the same run in brackets, read-out: Protein EC50

Chain of Protein (capsid assembly) (P03146 whole entry): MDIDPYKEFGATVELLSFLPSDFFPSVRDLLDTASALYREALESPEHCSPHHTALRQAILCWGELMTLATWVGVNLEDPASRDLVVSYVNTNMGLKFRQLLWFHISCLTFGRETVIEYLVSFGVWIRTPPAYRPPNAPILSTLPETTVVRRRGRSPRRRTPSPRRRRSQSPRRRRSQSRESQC

## Cc1cccc(NC(=O)N(Cc2nnc3n2CCCCC3)c2ccc3c(c2)OCO3)c1 [Example 1, 1-(Benzo[d][1,3]dioxol-5-yl)-1-((6,7,8,9-tetrahydro-5H-[1,2,4]triazolo[4,3-a]azepin-3-yl)methyl)-3-m-tolylurea]
[1]
  EC50: 1.3 µM
[1]; [3]
  inhibition at 30 µM: 72%
[2]
  CC50 at 65 h: > 100 µM
  viability at 65 h, 100 µM: 95%
Intracellular HBV DNA; [4]
  IC50: 0.02 µM

## O=C(Nc1ccc(F)c(Cl)c1)N(Cc1nnc2n1CCCCC2)c1ccc2c(c1)OCO2 [Example 2, 1-(Benzo[d][1,3]dioxol-5-yl)-3-(3-chloro-4-fluorophenyl)-1-((6,7,8,9-tetrahydro-5H-[1,2,4]triazolo[4,3-a]azepin-3-yl)methyl)urea]
[1]; [3]
  inhibition at 30 µM: 81%
[2]
  CC50 at 65 h: > 100 µM
  viability at 65 h, 100 µM: 100%
Intracellular HBV DNA; [4]
  IC50: 0.04 µM

## O=C(Nc1ccc(F)c(Cl)c1)N(Cc1nnc2n1CCCCC2)c1cccc(C(F)(F)F)c1 [Example 21, 3-(3-Chloro-4-fluorophenyl)-1-((6,7,8,9-tetrahydro-5H-[1,2,4]triazolo[4,3-a]azepin-3-yl)methyl)-1-(3-(trifluoromethyl)phenyl)urea]
[1]; [5]
  EC50: 11 µM
[1]; read-out: Protein % inhibition rate (@30 μM), @30 μM
  inhibition at 30 µM: 4%
Intracellular HBV DNA; [4]
  IC50: > 3.3 µM

## COc1ccc(N(Cc2nnc(C)n2-c2ccccc2)C(=O)Nc2ccc(F)c(Cl)c2)cc1 [Example 25, 3-(3-Chloro-4-fluorophenyl)-1-(4-methoxyphenyl)-1-((5-methyl-4-phenyl-4H-1,2,4-triazol-3-yl)methyl)urea]
[1]; [3]
  inhibition at 30 µM: -2%
Intracellular HBV DNA; [4]
  IC50: > 3.3 µM

## N#Cc1ccc(N(Cc2nnc3n2CCCCC3)C(=O)Nc2ccc(F)c(Cl)c2)cc1 [Example 28, 3-(3-Chloro-4-fluorophenyl)-1-(4-cyanophenyl)-1-((6,7,8,9-tetrahydro-5H-[1,2,4]triazolo[4,3-a]azepin-3-yl)methyl)urea]
[1]; [3]
  inhibition at 30 µM: 36%
[1]; [5]
  EC50: 4 µM
Intracellular HBV DNA; [4]
  IC50: 0.604 µM

## COc1ccc(N(Cc2nnc(C(C)C)n2C)C(=O)Nc2ccc(F)c(Cl)c2)cc1 [Example 29, 3-(3-Chloro-4-fluorophenyl)-1-((5-isopropyl-4-methyl-4H-1,2,4-triazol-3-yl)methyl)-1-(4-methoxyphenyl)urea]
[1]; [3]
  inhibition at 30 µM: 1%
Intracellular HBV DNA; [4]
  IC50: > 3.3 µM

## O=C(Nc1ccc(F)c(Cl)c1)N(Cc1nnc2n1CCCCCC2)c1ccc2c(c1)OCO2 [Example 30, 1-(Benzo[d][1,3]dioxol-5-yl)-3-(3-chloro-4-fluorophenyl)-1-((5,6,7,8,9,10-hexahydro-[1,2,4]triazolo[4,3-a]azocin-3-yl)methyl)urea]
[1]; [3]
  inhibition at 30 µM: 32%
[1]; [5]
  EC50: 3.6 µM
Intracellular HBV DNA; [4]
  IC50: 0.74 µM

## COc1ccc(N(Cc2nnc(C3CCCC3)n2C)C(=O)Nc2ccc(F)c(Cl)c2)cc1 [Example 31, 3-(3-Chloro-4-fluorophenyl)-1-((5-cyclopentyl-4-methyl-4H-1,2,4-triazol-3-yl)methyl)-1-(4-methoxyphenyl)urea]
[1]; [3]
  inhibition at 30 µM: -4%
[1]; [5]
  EC50: 16 µM
Intracellular HBV DNA; [4]
  IC50: 3.48 µM

## COc1ccc(N(Cc2nnc(C)n2C2CCCC2)C(=O)Nc2ccc(F)c(Cl)c2)cc1 [Example 32, 3-(3-Chloro-4-fluorophenyl)-1-((4-cyclopentyl-5-methyl-4H-1,2,4-triazol-3-yl)methyl)-1-(4-methoxyphenyl)urea]
[1]; [3]
  inhibition at 30 µM: 23%
[1]; [5]
  EC50: 4.9 µM
Intracellular HBV DNA; [4]
  IC50: 0.32 µM

## CN(C)c1ccc(N(Cc2nnc3n2CCCCC3)C(=O)Nc2ccc(F)c(Cl)c2)cc1 [Example 34, 3-(3-Chloro-4-fluorophenyl)-1-(4-(dimethylamino)phenyl)-1-((6,7,8,9-tetrahydro-5H-[1,2,4]triazolo[4,3-a]azepin-3-yl)methyl)urea]
[1]; [3]
  inhibition at 30 µM: -7%
Intracellular HBV DNA; [4]
  IC50: > 3.3 µM

## Cn1ccc(N(Cc2nnc3n2CCCCC3)C(=O)Nc2ccc(F)c(Cl)c2)n1 [Example 35, 3-(3-Chloro-4-fluorophenyl)-1-(1-methyl-1H-pyrazol-3-yl)-1-((6,7,8,9-tetrahydro-5H-[1,2,4]triazolo[4,3-a]azepin-3-yl)methyl)urea]
[1]; [3]
  inhibition at 30 µM: 63.1%
Intracellular HBV DNA; [4]
  IC50: > 3.3 µM

## COc1ccc(N(Cc2nnc(C)n2C2CC2)C(=O)Nc2ccc(F)c(Cl)c2)cc1 [Example 37, 3-(3-Chloro-4-fluorophenyl)-1-((4-cyclopropyl-5-methyl-4H-1,2,4-triazol-3-yl)methyl)-1-(4-methoxyphenyl)urea]
[1]; [3]
  inhibition at 30 µM: 84.1%
Intracellular HBV DNA; [4]
  IC50: > 3.3 µM

## COc1ccc(N(Cc2nnc3n2CCN(C(=O)OCc2ccccc2)CC3)C(=O)Nc2ccc(F)c(Cl)c2)cc1 [Example 38, Benzyl 3-((3-(3-chloro-4-fluorophenyl)-1-(4-methoxyphenyl)ureido)methyl)-8,9-dihydro-5H-[1,2,4]triazolo[4,3-d][1,4]diazepine-7(6H)-carboxylate]
[1]; [3]
  inhibition at 30 µM: -1%
Intracellular HBV DNA; [4]
  IC50: > 3.3 µM

## O=C(Nc1ccc(F)c(Cl)c1)N(Cc1nnc2n1CCCCC2)c1ncco1 [Example 39, 3-(3-Chloro-4-fluorophenyl)-1-(oxazol-2-yl)-1-((6,7,8,9-tetrahydro-5H-[1,2,4]triazolo[4,3-a]azepin-3-yl)methyl)urea]
[1]; [3]
  inhibition at 30 µM: 100%
[1]; [5]
  EC50: 5.7 µM
Intracellular HBV DNA; [4]
  IC50: > 3.3 µM

## COC(=O)Cc1nnc(CN(C(=O)Nc2ccc(F)c(Cl)c2)c2ccc3c(c2)OCO3)[nH]1 [Example 45, Methyl 2-(5-((1-(benzo[d][1,3]dioxol-5-yl)-3-(3-chloro-4-fluorophenyl)ureido)methyl)-4H-1,2,4-triazol-3-yl)acetate]
[1]; [3]
  inhibition at 30 µM: 6%
Intracellular HBV DNA; [4]
  IC50: > 3.3 µM

## O=C(Nc1ccc(F)c(Cl)c1)N(Cc1nnc2n1CCOCC2)c1ccnc(O)c1 [Example 46, 3-(3-chloro-4-fluorophenyl)-1-(2-hydroxypyridin-4-yl)-1-((5,6,8,9-tetrahydro-[1,2,4]triazolo[4,3-d][1,4]oxazepin-3-yl)methyl)urea]
[2]
  CC50 at 65 h: > 100 µM
  viability at 65 h, 100 µM: 90.5%
Intracellular HBV DNA; [4]
  IC50: > 1.1 µM

## COc1cc(N(Cc2nnc3n2CCOCC3)C(=O)Nc2ccc(F)c(Cl)c2)ccn1 [Example 47, 3-(3-Chloro-4-fluorophenyl)-1-(2-methoxypyridin-4-yl)-1-((5,6,8,9-tetrahydro-[1,2,4]triazolo[4,3-d][1,4]oxazepin-3-yl)methyl)urea]
[2]
  CC50 at 65 h: > 100 µM
  viability at 65 h, 100 µM: 81.2%
Intracellular HBV DNA; [4]
  IC50: 0.092 µM

## COc1ccc(N(Cc2nnc(C(F)F)n2C)C(=O)Nc2ccc(F)c(Cl)c2)cn1 [Example 48, 3-(3-Chloro-4-fluorophenyl)-1-((5-(difluoromethyl)-4-methyl-4H-1,2,4-triazol-3-yl)methyl)-1-(6-methoxypyridin-3-yl)urea]
[2]
  CC50 at 65 h: > 100 µM
  viability at 65 h, 100 µM: 102%
Intracellular HBV DNA; [4]
  IC50: > 1.1 µM

## COc1ccc(N(Cc2nnc(C(F)(F)F)n2C)C(=O)Nc2ccc(F)c(Cl)c2)cn1 [Example 49, 3-(3-Chloro-4-fluorophenyl)-1-(6-methoxypyridin-3-yl)-1-((4-methyl-5-(trifluoromethyl)-4H-1,2,4-triazol-3-yl)methyl)urea]
[2]
  CC50 at 65 h: > 100 µM
  viability at 65 h, 100 µM: 55.9%
Intracellular HBV DNA; [4]
  IC50: 0.438 µM

## COc1ccc(N(Cc2nnc(C(F)(F)F)n2CCO)C(=O)Nc2ccc(F)c(Cl)c2)cn1 [Example 50, 3-(3-Chloro-4-fluorophenyl)-1-((4-(2-hydroxyethyl)-5-(trifluoromethyl)-4H-1,2,4-triazol-3-yl)methyl)-1-(6-methoxypyridin-3-yl)urea]
[2]
  CC50 at 65 h: > 100 µM
  viability at 65 h, 100 µM: 101%
Intracellular HBV DNA; [4]
  IC50: > 1.1 µM

## COCCn1c(CN(C(=O)Nc2ccc(F)c(Cl)c2)c2ccc(OC)nc2)nnc1C(F)F [Example 51, 3-(3-Chloro-4-fluorophenyl)-1-((5-(difluoromethyl)-4-(2-methoxyethyl)-4H-1,2,4-triazol-3-yl)methyl)-1-(6-methoxypyridin-3-yl)urea]
[2]
  CC50 at 65 h: > 100 µM
  viability at 65 h, 100 µM: 84.2%
Intracellular HBV DNA; [4]
  IC50: > 1.1 µM

## COCCn1c(CN(C(=O)Nc2ccc(F)c(Cl)c2)c2ccc(OC)nc2)nnc1C(F)(F)F [Example 52, 3-(3-Chloro-4-fluorophenyl)-1-((4-(2-methoxyethyl)-5-(trifluoromethyl)-4H-1,2,4-triazol-3-yl)methyl)-1-(6-methoxypyridin-3-yl)urea]
[2]
  CC50 at 65 h: > 100 µM
  viability at 65 h, 100 µM: 55.4%
Intracellular HBV DNA; [4]
  IC50: > 1.1 µM

## COc1ccc(N(Cc2nnc(C(F)F)n2CCO)C(=O)Nc2ccc(F)c(Cl)c2)cn1 [Example 53, 3-(3-Chloro-4-fluorophenyl)-1-((5-(difluoromethyl)-4-(2-hydroxyethyl)-4H-1,2,4-triazol-3-yl)methyl)-1-(6-methoxypyridin-3-yl)urea]
[2]
  CC50 at 65 h: > 100 µM
  viability at 65 h, 100 µM: 99.1%
Intracellular HBV DNA; [4]
  IC50: > 1.1 µM

## O=C(Nc1cc(F)c(F)c(F)c1)c1ccc(F)c(S(=O)(=O)N2CCC(O)CC2)c1 [NVR, reference compound]
[1]; [5]
  EC50: 4.1 µM and 5.2 µM and 4.9 µM and 3.9 µM and 4.8 µM
Intracellular HBV DNA; read-out: IC50
  IC50: 0.4 µM
